The values that follow come from patent US20240360194A1, “New Peptides as Potent and Selective GIP Receptor Agonists” (Sanofi, priority 2021, published 2024).

In brackets after ≈: the same amount, converted by molar mass. Like-named read-outs stand apart in the source and are kept apart here. Numbered stars: 1 amine (or outer) side, 2 acyl side, 3 side chain; on linkers, the order of the positions; unused ones are H or OH. Square brackets hold non-standard residues; d marks the D form. Side chains are listed from the residue outwards. Peptide text beside a SMILES is read from it. * marks the point of attachment. C18 diacid = O=C(O)CCCCCCCCCCCCCCCCC(=O)*; γGlu = O=C(O)[C@H](CCC(=O)[*:2])N[*:1]; AEEA = NCCOCCOCC(=O)O; Aib = CC(C)(N)C(=O)O

Series [1] is described as follows: Solubility assessment (UHPLC-UV of supernatant, target 10 mg/ml). The class given is physicochemical. The method, boiled down:
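Peptides at 10 mg/ml (purity-corrected) in 100 mM phosphate pH 7.4, optionally with 2.7 mg/ml m-cresol; gentle agitation 1 h, then 5° C. overnight (24 h). Supernatant after 15 min centrifugation at 2500 RCF quantified by UHPLC-UV, with sequence-based extinction coefficients.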

Series [2] addresses T1, human GLP-1 receptor (hGLP-1R) (Homo sapiens, UniProt P43220). The experiment in a line: In vitro cellular cAMP assay for GLP-1 receptor efficacy (HEK-293 cell line over-expressing receptor). Format: cell-based. The following applies: HEK-293, 0.1% BSA.
The target in series [3] is T2, human GIP receptor (hGIPR) (Homo sapiens, UniProt P48546).
T2 sequence (P48546 22-466): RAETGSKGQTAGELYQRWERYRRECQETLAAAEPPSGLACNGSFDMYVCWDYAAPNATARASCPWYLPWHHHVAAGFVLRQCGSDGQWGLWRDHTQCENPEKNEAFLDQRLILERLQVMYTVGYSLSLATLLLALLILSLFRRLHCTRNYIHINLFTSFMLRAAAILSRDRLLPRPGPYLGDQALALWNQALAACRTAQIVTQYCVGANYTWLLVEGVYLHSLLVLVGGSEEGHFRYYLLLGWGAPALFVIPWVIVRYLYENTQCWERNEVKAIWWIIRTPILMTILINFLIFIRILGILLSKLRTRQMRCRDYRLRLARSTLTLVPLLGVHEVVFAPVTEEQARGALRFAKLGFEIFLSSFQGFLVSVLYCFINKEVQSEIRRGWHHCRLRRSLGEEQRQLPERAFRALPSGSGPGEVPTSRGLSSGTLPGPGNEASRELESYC
The series can be described thus: Binding assay, displacement of [125I]GIP from HEK-293 membranes over-expressing GIPR (SPA). The following applies: [125I]GIP displacement. The method in brief: (§1)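 Membranes from HEK-293 cells over-expressing human GIPR or GLP-1R, isolated by homogenising, sonicating and ultracentrifuging at 100000×g into HEPES/EDTA/NaCl buffer with protease inhibitors, were used for binding.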
In general terms: Loss of bound radioactivity is the signal in a displacement assay; it reports binding, not function.

Series [4] concerns the target T1, human GLP-1 receptor (hGLP-1R). The experiment in a line: Binding assay, displacement of [125I]GLP-1 from HEK-293 membranes over-expressing GLP-1R (SPA). The following applies: [125I]GLP-1 displacement. The method, boiled down:
as §1

The nature of series [5]: Pharmacokinetic evaluation in rats. The class given is in vivo. As to conditions: male, SD, rat. Here is the method: Compounds were administered in a suitable buffer system, e.g. PBS buffer solution at pH7.4 or DPBS solution at concentrations of 0.05, 0.1, 0.5 or 1 mg/ml depending on dose, species and administration volume. Male SD rats were dosed 0.25 mg/kg, 0.5 mg/kg or 1 mg/kg intravenously (i.v.) or subcutaneously (s.c.). Blood samples were collected after 0.08, 0.25, 0.5, 1, 2, 4, 8, 24, 32, and 48 h post i.v. application and 0.25, 0.5, 1, 2, 4, 8, 24, 32, and 48 h post s.c. application, respectively. Plasma samples were analysed after protein precipitation via liquid chromatography mass spectrometry (LC/MS). PK parameters and half-life were calculated using Phoenix-WinNonlin 8.1 using a non-compartmental model and linear trapezoidal interpolation calculation. Pharmacokinetic profiles were determined as described in Methods.

T1 sequence (P43220 24-463): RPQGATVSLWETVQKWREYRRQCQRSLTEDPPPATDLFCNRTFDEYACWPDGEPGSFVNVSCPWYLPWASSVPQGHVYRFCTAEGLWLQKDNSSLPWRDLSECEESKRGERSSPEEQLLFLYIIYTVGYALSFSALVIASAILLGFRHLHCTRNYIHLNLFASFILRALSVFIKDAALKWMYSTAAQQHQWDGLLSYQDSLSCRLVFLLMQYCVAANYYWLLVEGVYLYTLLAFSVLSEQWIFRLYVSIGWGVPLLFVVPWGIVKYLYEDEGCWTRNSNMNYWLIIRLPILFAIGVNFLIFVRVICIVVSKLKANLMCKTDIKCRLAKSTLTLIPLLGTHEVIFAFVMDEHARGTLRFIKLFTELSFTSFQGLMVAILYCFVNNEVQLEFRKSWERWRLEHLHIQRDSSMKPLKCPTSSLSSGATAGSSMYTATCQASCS

As usually defined, the EC50 is the concentration that produces a half-maximal response. Usually IC50 stands for the midpoint of a concentration-inhibition curve. Low readings indicate inhibition by little substance, high ones a need for much substance. As usually defined, the Cmax is the peak of the concentration-time curve. For `CC[C@H](C)[C@H](NC(=O)[C@H](CCCNC(=N)N)NC(=O)[C@H](CC(=O)O)NC(=O)[C@H](CCCCNC(=O)COCCOCCNC(=O)COCCOCCNC(=O)CC[C@H](NC(=O)CCCCCCCCCCCCCCCCC(=O)O)C(=O)O)NC(=O)C(C)(C)NC(=O)[C@@H](NC(=O)[C@H](CO)NC(=O)[C@H](CC(C)C)NC(=O)[C@H](CC(=O)O)NC(=O)[C@H](CO)NC(=O)[C@@H](NC(=O)[C@H](Cc1ccccc1)NC(=O)[C@@H](NC(=O)CNC(=O)[C@H](CCC(=O)O)NC(=O)C(C)(C)NC(=O)[C@@H](N)Cc1ccc(O)cc1)[C@@H](C)O)[C@@H](C)CC)[C@@H](C)CC)C(=O)N[C@@H](Cc1c[nH]cn1)C(=O)N[C@@H](CCC(N)=O)C(=O)NC(C)(C)C(=O)N[C@@H](CCC(=O)O)C(=O)N[C@@H](Cc1ccccc1)C(=O)N[C@H](C(=O)N[C@@H](CCC(=O)O)C(=O)N[C@@H](Cc1c[nH]c2ccccc12)C(=O)N[C@@H](CC(C)C)C(=O)N[C@@H](CC(C)C)C(=O)N[C@@H](C)C(=O)N[C@@H](CCC(N)=O)C(=O)N[C@@H](CCCNC(=N)N)C(=O)NCC(N)=O)[C@@H](C)CC` [SEQ ID NO: 6, H2N-Y-Aib-E-G-T-F-I-S-D-L-S-I-Aib-K[{AEEA}2-gGlu-C18OH]-D-R-I-H-Q-Aib-E-F-I-E-W-L-L-A-Q-R-G-NH2], the solubility at 24 h is over 9000 µg/mL in series [1] (100 mM phosphate buffer pH 7.4 (solubility buffer system A), pH 7.4, Solubility buffer system A: 100 mM phosphate buffer pH 7.4, read-out: Soluble amount) and 1800 µg/mL (≈ 415 µM) in series [1] (pH 7.4, Solubility buffer system C: 100 mM phosphate buffer pH 7.4, 2.7 mg/ml m-cresol, read-out: Soluble amount). Also, the EC50 in series [2] is over 10 nM. The 50% inhibitory concentration (IC50) amounted to 0.5 nM in series [3] and 156 nM in series [4]. Also, the AUC(0-t) in series [5] (plasma, iv, rats, 0.25 mg/kg i.v., read-out: AUClast) stood at 35700 ng·h/mL; in series [5] (plasma, sc, rats, 0.5 mg/kg s.c., read-out: AUClast), 69100 ng·h/mL. In addition, the clearance in series [5] (plasma, iv, rats, 0.25 mg/kg i.v., read-out: Cl (converted)) is 6.7 mL/h/kg. In addition, the Cmax was 4620 ng/mL in series [5] (plasma, iv, rats, 0.25 mg/kg i.v., read-out: Cmax) and 2880 ng/mL in series [5] (plasma, sc, rats, 0.5 mg/kg s.c., read-out: Cmax). Also, the half-life in series [5] (plasma, iv, rats, 0.25 mg/kg i.v., read-out: T1/2 (converted)) is 11.2 h; in series [5] (plasma, sc, rats, 0.5 mg/kg s.c., read-out: T1/2 (converted)), 9.7 h. Besides, the bioavailability in series [5] (plasma, sc, rats, 0.5 mg/kg s.c., read-out: F) was 98%.
In turn, `CC[C@H](C)[C@H](NC(=O)[C@H](CCCNC(=N)N)NC(=O)[C@H](CC(=O)O)NC(=O)[C@H](CCCCNC(=O)COCCOCCNC(=O)COCCOCCNC(=O)CC[C@H](NC(=O)CCCCCCCCCCCCCCCCC(=O)O)C(=O)O)NC(=O)C(C)(C)NC(=O)[C@@H](NC(=O)[C@H](CO)NC(=O)[C@H](CC(C)C)NC(=O)[C@H](CC(=O)O)NC(=O)[C@H](CO)NC(=O)[C@@H](NC(=O)[C@@](C)(CC)NC(=O)[C@@H](NC(=O)CNC(=O)[C@H](CCC(=O)O)NC(=O)C(C)(C)NC(=O)[C@@H](N)Cc1ccc(O)cc1)[C@@H](C)O)[C@@H](C)CC)[C@@H](C)CC)C(=O)N[C@@H](Cc1c[nH]cn1)C(=O)N[C@@H](CCC(N)=O)C(=O)NC(C)(C)C(=O)N[C@@H](CCC(=O)O)C(=O)N[C@@H](Cc1ccccc1)C(=O)N[C@H](C(=O)N[C@@H](CCC(=O)O)C(=O)N[C@@H](Cc1c[nH]c2ccccc12)C(=O)N[C@@H](CC(C)C)C(=O)N[C@@H](CC(C)C)C(=O)N[C@@H](C)C(=O)N[C@@H](CCC(N)=O)C(=O)N[C@@H](CCCNC(=N)N)C(=O)NCC(N)=O)[C@@H](C)CC` [SEQ ID NO: 16, H2N-Y-Aib-E-G-T-Iva-I-S-D-L-S-I-Aib-K[{AEEA}2-gGlu-C18OH]-D-R-I-H-Q-Aib-E-F-I-E-W-L-L-A-Q-R-G-NH2] had a solubility in series [1] (pH 7.4, Soluble amount) of 5400 µg/mL (≈ 1260 µM). The same molecule had an EC50 in series [2] of over 10 nM. Also, in series [3], the IC50 stood at 0.1 nM. Further, in series [4], the IC50 was found to be 174 nM. In series [5] (in vivo, iv, 0.25 mg/kg), this molecule had an AUC(0-t) of 41500 ng·h/mL, a Cmax of 7050 ng/mL, a clearance of 5.74 mL/h/kg and a half-life of 11.5 h. In series [5] (in vivo, sc, 0.5 mg/kg), this molecule gave an AUC(0-t) of 43900 ng·h/mL, a Cmax of 1720 ng/mL, a bioavailability of 55% and a half-life of 10.8 h.
Regarding `CC[C@H](C)[C@H](NC(=O)[C@H](Cc1ccccc1)NC(=O)[C@H](CCC(=O)O)NC(=O)[C@H](CCC(=O)O)NC(=O)[C@H](CCC(N)=O)NC(=O)[C@H](Cc1c[nH]cn1)NC(=O)[C@@H](NC(=O)[C@H](CCCNC(=N)N)NC(=O)[C@H](CC(=O)O)NC(=O)[C@H](CCCCNC(=O)COCCOCCNC(=O)COCCOCCNC(=O)CC[C@H](NC(=O)CCCCCCCCCCCCCCCCC(=O)O)C(=O)O)NC(=O)C(C)(C)NC(=O)[C@@H](NC(=O)[C@H](CO)NC(=O)[C@H](CC(C)C)NC(=O)[C@H](CC(=O)O)NC(=O)[C@H](CO)NC(=O)[C@@H](NC(=O)[C@H](Cc1ccccc1)NC(=O)[C@@H](NC(=O)CNC(=O)[C@H](CCC(=O)O)NC(=O)C(C)(C)NC(=O)[C@@H](N)Cc1ccc(O)cc1)[C@@H](C)O)[C@@H](C)CC)[C@@H](C)CC)[C@@H](C)CC)C(=O)N[C@@H](CCC(N)=O)C(=O)N[C@@H](Cc1c[nH]c2ccccc12)C(=O)N[C@@H](CC(C)C)C(=O)N[C@@H](CC(C)C)C(=O)N[C@@H](C)C(=O)N[C@@H](CCC(N)=O)C(=O)NCC(=O)N1CCC[C@H]1C(=O)N[C@@H](CO)C(=O)N[C@@H](CO)C(=O)NCC(=O)N[C@@H](C)C(=O)N1CCC[C@H]1C(=O)N1CCC[C@H]1C(=O)N1CCC[C@H]1C(=O)N[C@@H](CO)C(N)=O` [SEQ ID NO: 35, H2N-Y-Aib-E-G-T-F-I-S-D-L-S-I-Aib-K[{AEEA}2-gGlu-C18OH]-DRIHQEEFIQWLLAQGPSSGAPPPS-NH2] (H-Y[Aib]EGTFISDLSI[Aib]K([AEEA-AEEA-γGlu-C18 diacid])DRIHQEEFIQWLLAQGPSSGAPPPS-NH2), the Soluble amount in series [1] (24 h, pH 7.4) is over 9.7 mg/mL. For the same molecule, the solubility at 24 h in series [1] (pH 7.4, Soluble amount) was over 9500 µg/mL. The same molecule yielded an EC50 in series [2] of over 10 nM. This molecule showed an IC50 in series [3] of 0.6 nM. Besides, the IC50 in series [4] was over 100 nM. Also, in series [5] (in vivo, iv, 0.25 mg/kg), the AUC(0-t) came to 41600 ng·h/mL, the highest level (Cmax) was 5380 ng/mL, the clearance was 5.51 mL/h/kg and the half-life is 14.5 h. In series [5] (in vivo, sc, 0.5 mg/kg), this molecule showed an AUC(0-t) of 49900 ng·h/mL, a Cmax of 2010 ng/mL, an F of 73% and a half-life of 14.3 h.
